Results on nine molecules are retold here after publication PMC8125995, “In Vitro Antiplasmodial and Cytotoxic Activities of Compounds from the Roots of Eriosema montanum Baker f. (Fabaceae)” (Molecules, 2021).

In brackets after ≈: the same amount, converted by molar mass. Like-named read-outs stand apart in the source and are kept apart here. Some results are limits rather than exact numbers.

In data set [1] the test system is 3D7 strain of Plasmodium falciparum. The data set can be described thus: In vitro antiplasmodial activity (SYBR Green, 48 h). In kind it is cell-based. The conditions noted are these: read-out: Antiplasmodial Activity IC50. The procedure: Continuous in vitro cultures of asexual erythrocyte stages of P. falciparum, chloroquine-sensitive 3D7 strain was maintained according to the procedure of Trager and Jensen. Strains were obtained from ATCC, Bei Resources. The host cells were human red blood cells (A+). […] Compound stock solutions were prepared in DMSO at 10 mg/mL (for an extract) and 1 mg/mL (for an isolated compound). Then, the solution is directly diluted in the medium; each test sample was applied in a series of eight 2-fold dilutions in a 96-well plate, starting with 100 µg/mL and 10 µg/mL for the crude extract and purified compounds, respectively, and tested in triplicate. The effect of compounds on the parasite growth was estimated, after 48 h incubation, by using the SYBR Green, a DNA intercalating compound. Artemisinin (Sigma-Aldrich, Machelen, Belgium), at an initial concentration of 100 ng/mL, was used as positive control in all experiments. The half-maximal inhibitory concentration (IC50) values were calculated from graphs.

In the next data set the test system is different cell lines. More on the design: method as in doi:10.1016/j.phytol.2020.10.005. As to conditions: cited from earlier work.
Data set [2] in a line: Cytotoxicity, Cell Titer-Glo Luminescent Cell Viability Assay. In kind it is cell-based. As to conditions: human. The procedure:
(§1) The cytotoxic effect of the crude extract and compounds thereof on THP-1 human acute leukemia cell line was carried using the Cell Titer-Glo Luminescent Cell Viability Assay (Promega). […] Cells were then incubated in the presence or absence of tested compounds for 3 days at 37 °C in a humidified 5% CO2 atmosphere in a 96-wells plate at a cell density of two thousand cells/well. The cell viability was then evaluated using Cell Titer-Glo Luminescent Cell Viability Assay (Promega) according to the manufacturer’s instructions.
For orientation: ATP-based viability assays read luminescence as a measure of living cells.

For data set [3], the system named is THP-1 human acute leukemia cell line. The description is as above. The format is cell-based. The conditions noted are these: 3 days. The method, then: as §1
Details of data set [4]: method as in PMID 21872416. As to conditions: antiplasmodial activity; read-out: reported IC50; cited from earlier work.
Setting [5] is: chloroquine-sensitive 3D7 strain, 48 h incubation, SYBR Green, mean ± S.D. of two, three or four independent experiments.

For `C[C@@H]1CC[C@H]2[C@@H](C)C(=O)O[C@@H]3O[C@@]4(C)CC[C@@H]1[C@]32OO4` [Artemisinin, reference compound], in data set [1] (setting [5]), the half-maximal inhibitory concentration (IC50) (in general, the concentration needed to halve the response being measured) was 0.0067 ± 0.003 µg/mL (≈ 0.0237 µM).
`O=C(O)C[C@](O)(Cc1ccc(O)cc1)C(=O)O` [Compound 1, eucomic acid]: the CC50 (in general, the concentration giving 50% cytotoxicity) with different cell lines is above 100 µM. The IC50 in data set [1] (setting [5]) is 0.057 ± 0.031 µg/mL (≈ 0.237 µM). In data set [2] (Cytotoxic Activity CC50), this molecule yielded a 50% cytotoxic concentration (CC50) at 3 days of 375 ± 97.3 µg/mL (≈ 1560 µM).
`COc1cc(OC2OC(CO)C(O)C(O)C2O)cc2occ(-c3ccc(O)cc3)c(=O)c12` (stereo not shown) [Compound 2, 7-O-glucopyranosyl-isoprunetin]: in data set [1] (setting [5]), the IC50 amounted to 0.113 ± 0.074 µg/mL (≈ 0.253 µM). The molecule also returned a CC50 at 3 days in data set [2] (Cytotoxic Activity CC50) of 322 ± 20.6 µg/mL (≈ 721 µM).
Consider `O=c1c(-c2ccc(O)cc2)coc2cc(O[C@@H]3O[C@H](CO)[C@@H](O)[C@H](O)[C@H]3O)cc(O)c12` [Compound 3, genistin], for which the IC50 in data set [1] (setting [5]) came out at 7.87 ± 1.72 µg/mL (≈ 18.2 µM). Moreover, the “Cytotoxic Activity CC50” value in data set [3] was found to be 196.3 ± 44.5 µg/mL. In addition, the CC50 at 3 days in data set [2] (Cytotoxic Activity CC50) turned out to be 169 µg/mL (≈ 390 µM).
As for `O=C(O)CC(=O)OC[C@H]1O[C@@H](Oc2cc(O)c3c(=O)c(-c4ccc(O)cc4)coc3c2)[C@H](O)[C@@H](O)[C@@H]1O` [Compound 4, malonyl genistin], the IC50 in data set [1] (setting [5]) is above 10 µg/mL. In addition, the “Cytotoxic Activity CC50” value in data set [3] was determined as 223.3 ± 58.6 µg/mL. Also, in data set [2] (Cytotoxic Activity CC50), it took 182 µg/mL (≈ 351 µM) to reach half-maximal cytotoxicity (CC50 at 3 days).
For the molecule `COc1cc(O)cc2occ(-c3ccc(O)cc3)c(=O)c12` [Compound 5, isoprunetin], the IC50 in data set [1] (setting [5]) is 0.042 µg/mL (≈ 0.148 µM). In data set [2] (Cytotoxic Activity CC50), this molecule returned a CC50 at 3 days of 221 ± 33.3 µg/mL (≈ 778 µM).
For `O=c1c(-c2ccc(O)c(O)c2)coc2cc(O)cc(O)c12` [Compound 6, Isoluteolin] the same measures were 0.121 ± 0.048 µg/mL (≈ 0.423 µM) and 243 ± 73 µg/mL (≈ 848 µM).
For `O=c1c(-c2ccc(O)cc2)coc2cc(O)cc(O)c12` [Compound 7, genistein], the IC50 in data set [1] (3D7, 48 h) was found to be 7.74 ± 0.802 µg/mL (≈ 28.6 µM). In data set [2] (THP-1 cells, 3 days incubation, read-out: Cytotoxic Activity CC50), the CC50 at 3 days was 116 µg/mL (≈ 430 µM).
Take `O=C(O)CC(O)C(=O)O` (stereo not shown) [Malic acid, malic acid]: in data set [4], the half-maximal inhibitory concentration (IC50) is above 10 µM.
